As a reminder, the melting point is the temperature, or range, at which the solid turns liquid. Broadly, the IC50 is the concentration that gives 50% inhibition.

In patent US6710047B2, “Phthalazines with angiogenesis inhibiting activity” (Novartis AG, priority 1997, dated 2004) one finds melting point and IC50 data, which are given here for 49 molecules.

Series [1] deals with T1, Flt-1 VEGF-receptor tyrosine kinase (Homo sapiens, UniProt P17948).
T1 sequence (P17948 827-1158 limits assumed): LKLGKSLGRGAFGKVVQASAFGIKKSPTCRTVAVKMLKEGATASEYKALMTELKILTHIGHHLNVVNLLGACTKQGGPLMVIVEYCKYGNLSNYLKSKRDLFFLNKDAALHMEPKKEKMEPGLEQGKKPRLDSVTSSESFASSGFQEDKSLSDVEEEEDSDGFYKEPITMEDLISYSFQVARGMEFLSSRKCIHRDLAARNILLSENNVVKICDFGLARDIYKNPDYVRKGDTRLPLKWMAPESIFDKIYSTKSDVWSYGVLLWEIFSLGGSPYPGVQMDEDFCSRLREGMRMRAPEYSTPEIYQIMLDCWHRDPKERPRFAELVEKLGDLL
Nature of the series: Test for activity against Flt-1 VEGF-receptor tyrosine kinase.
Protocol: Test for activity against VEGF-receptor tyrosine kinase. The test is conducted using Flt-1 VEGF-receptor tyrosine kinase. […] The reaction is then ended by the addition of 10 μl 0.25 M ethylenediaminetetraacetate (EDTA) pH 7. Using a multichannel dispenser (LAB SYSTEMS, USA), an aliquot of 20 μl is applied to a PVDF (=polyvinyl difluoride) Immobilon P membrane (Millipore, USA), incorporating a Millipore microtiter filter manifold, and connected to a vacuum.
The test is conducted using Flt-1 VEGF-receptor tyrosine kinase, as described hereinabove.

The mark [2] stands for this setting: kinase domain of Flt-1, poly(Glu,Tyr) 4:1, 8 μM [33P]-ATP, 15 minutes at room temperature.

Structures can show the parent of a compound that is named as a salt. Where two headings read alike, the source gives them in different places.

With `COc1cccc(Nc2nnc(Cc3ccncc3)c3ccccc23)c1`, the melting point lay within 118 to 120 °C.
Turning to `C[C@@H](Nc1nnc(Cc2ccncc2)c2ccccc12)c1ccccc1.Cl.Cl`, the melting point was 190 °C (dec.).
Consider `Oc1cccc(Nc2nnc(Cc3ccncc3)c3ccccc23)c1`, for which the melting point was in the range of 217 to 219 °C.
In turn, `CC(=O)Nc1ccc2c(Cc3ccncc3)nnc(Nc3ccc(Cl)cc3)c2c1.Cl` displayed a melting point of 260 to 265 °C.
In turn, `COc1ccc(Nc2nnc(Cc3ccncc3)c3ccc(NC(C)=O)cc23)cc1.Cl` showed a melting point of 160 to 163 °C.
Molecule `COc1cccc(Nc2nnc(Cc3ccncc3)c3ccc(NC(C)=O)cc23)c1.Cl` displayed a melting point of 156 to 159 °C.
`CC(=O)Nc1ccc2c(Cc3ccncc3)nnc(Nc3ccccc3)c2c1.Cl` yielded a melting point of 162 to 166 °C.
Take `CC(C)(C)c1ccc(Nc2nnc(Cc3ccncc3)c3ccccc23)cc1.Cl.Cl`: the melting point lay in the range of 196 to 200 °C.
Regarding `c1ccc(-c2ccc(Nc3nnc(Cc4ccncc4)c4ccccc34)cc2)cc1`, the melting point lay within 189 to 191 °C.
The molecule `Cl.Cl.c1ccc(Nc2nnc(Cc3ccncc3)c3ccccc23)cc1` showed a melting point of 217 to 220 °C.
Molecule `CC(C)c1ccc(Nc2nnc(Cc3ccncc3)c3ccccc23)cc1` (as salt: hydrochloride) [Example 47, 1-(4-Isoprolylanilino)-4-(4-pyridylmethyl)phthalazine dihydrochloride] displayed a melting point greater than 250 °C.
Molecule `Cc1ccc(Nc2nnc(Cc3ccncc3)c3ccccc23)cc1O` (hydrate or solvate) [Example 67B] showed a melting point of 192 to 195 °C.
On to `FC(F)C(F)(F)Oc1cccc(Nc2nnc(Cc3ccncc3)c3ccccc23)c1` (hydrate or solvate) [Example 67S], for which the melting point is 185 to 187 °C.
On to `CC(c1ccncc1)c1nnc(Nc2ccc(Cl)cc2)c2ccccc12` (racemic) [Example 64, rac 1-(4-Chloroanilino) 4-[1-(4-pyridyl)ethyl]phthalazine], for which half-maximal inhibition in series [1] (setting [2]) (IC50) required 907 nM.
In series [1], `Clc1cccc(Nc2nnc(Cc3ccncc3)c3ccccc23)c1` [Example 5, 1-(3-Chloroanilino)-4-(4-pyridylmethyl)phthalazine 1,8 hydrochloride] registered an IC50 of 210 nM.
`c1ccc(CNc2nnc(Cc3ccncc3)c3ccccc23)cc1` [Example 7, 1-Benzylamino-4-(4-pyridylmethyl)phthalazine] displayed a melting point of 137 to 138 °C. In series [1], this molecule gave an IC50 of 640 nM.
With `COc1ccc(Nc2nnc(Cc3ccncc3)c3ccccc23)cc1` [Example 8, 1-(4-Methoxyanilino)-4-(4-pyridylmethyl)phthalazine], the melting point was in the range of 223 to 224 °C. For the same molecule, in series [1], the IC50 worked out at 330 nM.
As to `c1ccc(COc2cccc(Nc3nnc(Cc4ccncc4)c4ccccc34)c2)cc1` [Example 9, 1-(3-Benzyloxyanilino)-4-(4-pyridylmethyl)phthalazine], the melting point lay in the range of 142 to 143 °C. In addition, it took 970 nM to reach half-maximal inhibition in series [1] (IC50).
As to `CC(=O)Nc1ccc(Nc2nnc(Cc3ccncc3)c3ccccc23)cc1` [Example 11, 1-(4-Acetaminoanilino)-4-(4-pyridylmethyl)phthalazine], the melting point was greater than 270 °C.
In the case of `COc1ccccc1Nc1nnc(Cc2ccncc2)c2ccccc12` [Example 14, 1-(2-Methoxyanilino)-4-(4-pyridylmethyl)phthalazine], the melting point is 190 to 191 °C. The half-maximal inhibitory concentration (IC50) in series [1] stood at 740 nM.
The molecule `c1cncc(Nc2nnc(Cc3ccncc3)c3ccccc23)c1` [Example 15, 1-(3-Pyridylamino)-4-(4-pyridylmethyl)phthalazine] displayed a melting point of 137 to 139 °C.
Take `FC(F)(F)c1ccc(Nc2nnc(Cc3ccncc3)c3ccccc23)cc1` [Example 16, 1-(4-Trifluoromethylanilino)-4-(4-pyridylmethyl)phthalazine]: the melting point lay in the range of 205 to 206 °C. This molecule also gave an IC50 in series [1] of 520 nM.
For `Fc1ccc(Nc2nnc(Cc3ccncc3)c3ccccc23)cc1` [Example 17, 1-(4-Fluoroanilino)-4-(4-pyridylmethyl)phthalazine], in that order: 129 to 131 °C and 290 nM.
`Oc1ccc(Nc2nnc(Cc3ccncc3)c3ccccc23)cc1` [Example 19, 1-(4-Hydroxyanilino)-4-(4-pyridylmethyl)phthalazine] registered a melting point of 239 to 241 °C. In series [1], this molecule registered an IC50 of 730 nM.
`CS(=O)(=O)O.CS(=O)(=O)O.CS(=O)(=O)O.Nc1cccc(Nc2nnc(Cc3ccncc3)c3ccccc23)c1` [Example 20, 1-(3-Aminoanilino)-4-(4-pyridylmethyl)phthalazine trimesylate] gave a melting point of 249 to 251 °C. In series [1], this molecule showed an IC50 of 500 nM.
`Clc1ccc(Nc2nnc(Cc3ccncc3)c3ccccc23)cc1Cl` [Example 21, 1-(3,4-Dichloroanilino)-4-(4-pyridylmethyl)phthalazine] registered a melting point of 249 to 250 °C. Moreover, the midpoint of inhibition in series [1], the IC50, lay at 410 nM.
`Brc1ccc(Nc2nnc(Cc3ccncc3)c3ccccc23)cc1` [Example 22, 1-(4-Bromoanilino)-4-(4-pyridylmethyl)phthalazine] returned a melting point of 201 to 202 °C. The molecule also showed an IC50 in series [1] of 180 nM.
Molecule `COc1ccc(Nc2nnc(Cc3ccncc3)c3ccccc23)cc1Cl` [Example 23, 1-(3-Chloro-4-methoxyanilino)-4-(4-pydridylmethyl)phthalazine] came in with a melting point of 195 to 197 °C. The half-inhibitory concentration (IC50) in series [1] was determined as 515 nM.
`N#Cc1ccc(Nc2nnc(Cc3ccncc3)c3ccccc23)cc1` [Example 24, 1-(4-Cyanoanilino)-4-(4-pyridylmethyl)phthalazine] registered a melting point of 228 to 230 °C. In series [1], this molecule showed an IC50 of 666 nM.
`Nc1ccc2c(Cc3ccncc3)nnc(Nc3ccc(Cl)cc3)c2c1` [Example 32A, 7-Amino-1-(4-chloroanilino)-4-(4-pyridylmethyl)phthalazine hydrochloride]: half-maximal inhibition in series [1] (IC50) required 42 nM.
Take `Nc1ccc2c(Cc3ccncc3)nnc(Nc3cccc(Cl)c3)c2c1` [Example 32B]: in series [1], it took 1000 nM to reach half-maximal inhibition (IC50).
In turn, `Cc1ccc(Nc2nnc(Cc3ccncc3)c3ccc(N)cc23)cc1` [Example 32D] returned an IC50 in series [1] of 480 nM.
`COc1cccc(Nc2nnc(Cc3ccncc3)c3ccc(N)cc23)c1` [Example 32F] registered a concentration for half-maximal inhibition (IC50) in series [1] of 793 nM.
In the case of `Cc1ccc(Nc2nnc(Cc3ccncc3)c3ccccc23)cc1` [Example 37, 1-(4-Methylanilino)-4-(4-pyridylmethyl)phthalazine], the melting point lay within 152 to 153 °C. The same molecule had an IC50 in series [1] of 154 nM.
`Fc1ccc(Nc2nnc(Cc3ccncc3)c3ccccc23)cc1Cl` [Example 42, 1-(3-Chloro-4-fluoroanilino)-4-(4-pyridylmethyl)phthalazine] gave a melting point of 185 to 187 °C. Moreover, it took 211 nM to reach half-maximal inhibition in series [1] (IC50).
For `Cc1cccc(Nc2nnc(Cc3ccncc3)c3ccccc23)c1` [Example 43, 1-(3-Methylanilino)-4-(4-pyridylmethyl)phthalazine], in that order: 141 to 143 °C and 9070 nM.
Consider `CC(C)c1ccc(Nc2nnc(Cc3ccncc3)c3ccccc23)cc1` [Example 47, 1-(4-Isoprolylanilino)-4-(4-pyridylmethyl)phthalazine dihydrochloride], for which the IC50 in series [1] is 188 nM.
The molecule `Clc1ccc(Nc2nnc(NCc3ccncc3)c3ccccc23)cc1` [Example 49, 1-(4-Chloroanilino)-4-(4-pyridylmethylamino)phthalazine] had a melting point of 233 to 236 °C.
`COc1cc(Nc2nnc(Cc3ccncc3)c3ccccc23)cc(OC)c1OC` [Example 54, 1-(3,4,5-Trimethoxyanilino)-4-(4-pyridylmethyl)phthalazine] had a melting point of 110 to 111 °C.
`[O-][n+]1nc(Nc2ccc(Cl)cc2)c2ccccc2c1Cc1ccncc1` [Example 55, 1-(4-Chloroanilino)-4-(4-pyridylmethyl)phthalazine-3-oxide] had a melting point of 226 to 228 °C.
On to `Cc1ccc(Nc2nnc(Cc3ccncc3)c3ccccc23)cc1O` [Example 67B], for which inhibition in series [1] was half-maximal at 335 nM (IC50).
Still for that read-out and setting: the result for `CC(C)c1cccc(Nc2nnc(Cc3ccncc3)c3ccccc23)c1` [Example 67Q] reads 328 nM; that for `FC(F)C(F)(F)Oc1cccc(Nc2nnc(Cc3ccncc3)c3ccccc23)c1` [Example 67S], 1200 nM.
With `CC(=O)c1cccc(Nc2nnc(Cc3ccncc3)c3ccccc23)c1` [Example 70A, 1-(3-Acetylanilino)-4-(4-pyridylmethyl)phthalazine], in series [1], the IC50 is 1000 nM.
`CC1(c2ccc(Nc3nnc(Cc4ccncc4)c4ccccc34)cc2)OCCO1` [Example 70B, 1-[(2′-methyl-1′,3′-dioxolan-2′-yl)-anilino]-4-(4-pyridylmethyl)phthalazine]: the concentration for half-maximal inhibition (IC50) in series [1] (setting [2]) was determined as 1000 nM.
Regarding `Clc1cccc(Oc2nnc(Cc3ccncc3)c3ccccc23)c1` [Example 72A, 1-(3-Chlorophenoxy)-4-(4-pyridylmethyl)phthalazine], the half-inhibitory concentration (IC50) in series [1] came to 1270 nM.
Take `Cc1c(Cc2ccncc2)nnc(Nc2ccc(Cl)cc2)c1C` [Example 82A, 3-(4-chloroanilino)-4,5-dimethyl-6-(pyridin-4-yl)methylpyridazine]: the IC50 in series [1] was found to be 478 nM.
Same read-out and setting: the result for `Cc1ccc(Nc2nnc(Cc3ccncc3)c(C)c2C)cc1` [Example 82B, 3-(4-methylanilino)-4,5-dimethyl-6-(pyridin-4-yl)methylpyridazine] reads 774 nM; that for `Cc1cccc(Nc2nnc(Cc3ccncc3)c(C)c2C)c1` [Example 82E, 3-(3-methylanilino)-4,5-dimethyl-6-(pyridin-4-yl)methylpyridazine], 2500 nM.
